Results: publication PMC9186412, “Rational Framework for the Design of Trp- and Arg-Rich Peptide Antibiotics Against Multidrug-Resistant Bacteria” (Frontiers in Microbiology, 2022)
In brackets after ≈: the same amount, converted by molar mass. Where two headings read alike, the source gives them in different places. Where a SMILES comes first, the peptide text is derived from it. Bridges are numbered along the chain shown (N, C = ends). [ ]: non-standard residue; d: D form. The star is where a group is joined. X1 = CC[C@H](C)CCCCC(=O)*; Dab = NCC[C@H](N)C(=O)O

Tests used:
Enterobacter spp = assay: microbe, parasite or virus in culture; assay type: cell-based, Enterobacter spp (aerogenes, cloacae)
Procedure: (§1) Bacterial clinical isolates, used for initial screening and in previous studies ([Deslouches et al., 2013]; [Lin et al., 2018]), were anonymously provided by the clinical microbiology laboratory of the University of Pittsburgh medical Center. The panel used for secondary screening was from [CDC (2013)] (Supplementary Table 3), with resistance profiles data. Bacteria are stored in lock-secured –80°C freezer and typically retrieved by obtaining single colonies on agar plates prior for subsequent liquid broth cultures. Suspensions of test bacteria were prepared from log phase of growth by diluting overnight cultures at 1:100 with fresh cation-adjusted MHB (MHB2, Millipore Sigma, United States) and incubating for additional 3–4 h. Bacteria were spun at 3,000 × g for 10 min and the pellet resuspended in test condition media (Millipore Sigma, United States) to determine bacterial turbidity using a Den-1B densitometer (Grant Instruments, United States) at 0.5 McFarland (unit of bacterial density) corresponding to […].
(§2) To examine antibacterial activity, we used minor modifications of a standard growth inhibition assay endorsed by the Clinical and Laboratory Standards Institute (CLSI), as previously described ([Deslouches et al., 2013]). Bacteria were incubated with each of the indicated peptides in MHB2. The bacterial cells were kept in an incubator for 18 h at 37°C, which is linked to a robotic system that feeds a plate reader every hour with one of 8 × 96-well plates. This set-up allows the collection of growth kinetic data at A 570 (absorbance at 570 nm) to examine growth inhibition in real time (BioTek Instruments, United States). […] The assays are typically repeated a second time. If the MIC is different, a third experimental trial is performed to confirm the MIC. To assess bactericidal properties of the peptide, the assay was modified by using 15% fetal bovine serum (FBS, for a more physiologically relevant test condition) mixed with 25% MHB2 and 60% PBS. Bacterial cells (colony forming unit/mL or CFU/mL) were enumerated after incubating treated bacteria for 3 h and plating serially diluted samples on broth agar medium at 37°C overnight. Minimum bactericidal concentration (MBC) was determined as the peptide concentration at which complete bacterial killing was observed. […] Data were analyzed using GraphPad Prism software.

E. coli = assay: microbe, parasite or virus in culture; assay type: cell-based, Escherichia coli
Procedure: as §1, §2

[1] = system: ESKAPE pathogens and Escherichia coli; details: initial test strains; MHB2
Procedure: Bacteria were incubated with each of the indicated peptides in MHB2. […] To assess bactericidal properties of the peptide, the assay was modified by using 15% fetal bovine serum (FBS, for a more physiologically relevant test condition) mixed with 25% MHB2 and 60% PBS. […] Data were analyzed using GraphPad Prism software.

K. pneumoniae = assay: microbe, parasite or virus in culture; assay type: cell-based, Klebsiella pneumoniae
Procedure: as §1, §2

P. aeruginosa = assay: microbe, parasite or virus in culture; assay type: cell-based, Pseudomonas aeruginosa
Procedure: as §1, §2

A. baumannii = assay: microbe, parasite or virus in culture; assay type: cell-based, Acinetobacter baumannii
Procedure: as §1, §2

CDC AR isolates = system: CDC AR isolates; set-up: key: S (green), susceptible; I (blue), intermediate; R (red), resistant; details: data provided by the CDC, ref CDC, cited from earlier work
Excerpt: Supplement Table_3.XLSX, sheet "CDC AR isolates profiles" | column: G(-) strains

In the case of CC[C@H](C)CCCCC(=O)N[C@@H](CCN)C(=O)N[C@H](C(=O)N[C@@H](CCN)C(=O)N[C@H]1CCNC(=O)[C@H]([C@@H](C)O)NC(=O)[C@H](CCN)NC(=O)[C@H](CCN)NC(=O)[C@H](CC(C)C)NC(=O)[C@@H](CC(C)C)NC(=O)[C@H](CCN)NC1=O)[C@@H](C)O [Colistin, reference compound] (X1-[Dab]T[Dab][Dab][Dab][dL]L[Dab][Dab]T; lactam 4-C (inferred); N-terminus assumed), the MIC (Enterobacter spp; strain EA62 (aerogenes), CDC clinical strain, confirmed by a second or third experimental trial) is reported as 2 µM (≈ 2.34 µg/mL), the MIC (Enterobacter spp; strain EA518 (aerogenes), UPMC, MHB2, 18 h, 37°C) is reported as 0.25 µM (≈ 0.292 µg/mL) and the MIC (Enterobacter spp; strain EA547 (aerogenes), CDC clinical strain, confirmed by a second or third experimental trial) is reported as 0.25 µM (≈ 0.292 µg/mL). It also gave an MIC (Enterobacter spp; strain EA596 (aerogenes), UPMC, MHB2, 18 h, 37°C) of 0.25 µM (≈ 0.292 µg/mL), an MIC (Enterobacter spp; strain EC470 (cloacae), UPMC, MHB2, 18 h, 37°C) of 0.25 µM (≈ 0.292 µg/mL) and an MIC (Enterobacter spp; strain EC544 (cloacae), CDC clinical strain, confirmed by a second or third experimental trial) of 4 µM (≈ 4.68 µg/mL). For the same molecule, the MIC (Enterobacter spp; strain EC545 (cloacae), CDC clinical strain, confirmed by a second or third experimental trial) was 2 µM (≈ 2.34 µg/mL), the MIC (Enterobacter spp; strain EC560 (cloacae), UPMC, MHB2, 18 h, 37°C) was 0.25 µM (≈ 0.292 µg/mL) and the MIC (E. coli; strain Eco541, CDC clinical strain, confirmed by a second or third experimental trial) was 1 µM (≈ 1.17 µg/mL). The MIC (E. coli; strain Eco543, CDC clinical strain, confirmed by a second or third experimental trial) was 8 µM (≈ 9.36 µg/mL), the MIC (E. coli; strain Eco546, CDC clinical strain, confirmed by a second or third experimental trial) was 0.25 µM (≈ 0.292 µg/mL) and the MIC (E. coli; strain Eco549, CDC clinical strain, confirmed by a second or third experimental trial) was 1 µM (≈ 1.17 µg/mL). For the same molecule, the MIC (E. coli; strain Eco25922, MHB2, 18 h, 37°C) was 0.5 µM (≈ 0.585 µg/mL), the MIC (E. coli; strain YDC107, UPMC, MHB2, 18 h, 37°C) was 0.5 µM (≈ 0.585 µg/mL) and the MIC (E. coli; strain YDC337, UPMC, MHB2, 18 h, 37°C) was 0.25 µM (≈ 0.292 µg/mL). The MIC (E. coli; strain YDC748, UPMC, MHB2, 18 h, 37°C) was 0.25 µM (≈ 0.292 µg/mL), the “activity against the GPB strains” value [1] was “inactive” and the MIC (K. pneumoniae; colistin-resistant CDC isolate KP46, MHB2) was 4 µM (≈ 4.68 µg/mL). It also gave an MIC (K. pneumoniae; colistin-resistant CDC isolate KP87, MHB2) greater than 16 µM, an MIC (K. pneumoniae; colistin-resistant CDC isolate KP125, MHB2) of 8 µM (≈ 9.36 µg/mL) and an MIC (K. pneumoniae; colistin-resistant CDC isolate KP507, MHB2) of 16 µM (≈ 18.7 µg/mL). It also gave an MIC (K. pneumoniae; colistin-resistant CDC isolate KP1010, MHB2) of 16 µM (≈ 18.7 µg/mL), an MIC (K. pneumoniae; colistin-resistant CDC isolate KP1041, MHB2) greater than 16 µM and an MIC (K. pneumoniae; colistin-resistant CDC isolate KP1045, MHB2) greater than 16 µM. It also gave an MIC (K. pneumoniae; strain KP542, CDC clinical strain, confirmed by a second or third experimental trial) greater than 16 µM, an MIC (K. pneumoniae; strain KP548, CDC clinical strain, confirmed by a second or third experimental trial) of 0.25 µM (≈ 0.292 µg/mL) and an MIC (K. pneumoniae; strain KP550, CDC clinical strain, confirmed by a second or third experimental trial) of 0.25 µM (≈ 0.292 µg/mL). For the same molecule, the MIC (K. pneumoniae; strain KP552, CDC clinical strain, confirmed by a second or third experimental trial) was 0.25 µM (≈ 0.292 µg/mL), the MIC (K. pneumoniae; strain KPA5 (colistin-resistant), UPMC, MHB2, 18 h, 37°C) was greater than 16 µM and the MIC (K. pneumoniae; strain KPB3, UPMC, MHB2, 18 h, 37°C) was 0.25 µM (≈ 0.292 µg/mL). For the same molecule, the MIC (K. pneumoniae; strain KPC3, UPMC, MHB2, 18 h, 37°C) was 0.25 µM (≈ 0.292 µg/mL), the MIC (P. aeruginosa; strain PA01, MHB2, 18 h, 37°C) was 0.5 µM (≈ 0.585 µg/mL) and the MIC (P. aeruginosa; strain PA14, MHB2, 18 h, 37°C) was 0.25 µM (≈ 0.292 µg/mL). It also gave an MIC (P. aeruginosa; strain PA97-5, UPMC, MHB2, 18 h, 37°C) of 0.25 µM (≈ 0.292 µg/mL), an MIC (P. aeruginosa; strain PA129-5, UPMC, MHB2, 18 h, 37°C) of 0.5 µM (≈ 0.585 µg/mL) and an MIC (P. aeruginosa; strain PA216, CDC clinical strain, confirmed by a second or third experimental trial) of 0.5 µM (≈ 0.585 µg/mL). For the same molecule, the MIC (P. aeruginosa; strain PA229, CDC clinical strain, confirmed by a second or third experimental trial) was greater than 16 µM, the MIC (P. aeruginosa; strain PA230, CDC clinical strain, confirmed by a second or third experimental trial) was 0.5 µM (≈ 0.585 µg/mL) and the MIC (P. aeruginosa; strain PA231, CDC clinical strain, confirmed by a second or third experimental trial) was 1 µM (≈ 1.17 µg/mL). For the same molecule, the MIC (A. baumannii; strain AB273, CDC clinical strain, confirmed by a second or third experimental trial) was 0.5 µM (≈ 0.585 µg/mL), the MIC (A. baumannii; strain AB274, CDC clinical strain, confirmed by a second or third experimental trial) was 0.25 µM (≈ 0.292 µg/mL) and the MIC (A. baumannii; strain AB275 (first line, r8), CDC clinical strain, confirmed by a second or third experimental trial) was 0.25 µM (≈ 0.292 µg/mL). The MIC (A. baumannii; strain AB275 (second line, r9), CDC clinical strain, confirmed by a second or third experimental trial) was 0.5 µM (≈ 0.585 µg/mL), the MIC (A. baumannii; strain AB-A2, UPMC clinical strain, MHB2, 18 h, 37°C, A570, confirmed by 2nd or 3rd trial) was 0.5 µM (≈ 0.585 µg/mL) and the MIC (A. baumannii; strain AB-A3, UPMC, MHB2, 18 h, 37°C) was 0.25 µM (≈ 0.292 µg/mL). For the same molecule, the MIC (A. baumannii; strain AB-F8, UPMC, MHB2, 18 h, 37°C) was 0.5 µM (≈ 0.585 µg/mL), the MIC (A. baumannii; strain AB-F9, UPMC, MHB2, 18 h, 37°C) was 0.25 µM (≈ 0.292 µg/mL) and the Antibiotic susceptibility profile (CDC AR isolates; Acinetobacter baumannii AB273, CDC AR isolate) was “S”. The Antibiotic susceptibility profile (CDC AR isolates; Acinetobacter baumannii AB274, CDC AR isolate) was “S”, the Antibiotic susceptibility profile (CDC AR isolates; Acinetobacter baumannii AB275, CDC AR isolate) was “S” and the Antibiotic susceptibility profile (CDC AR isolates; Acinetobacter baumannii AB276, CDC AR isolate) was “S”. The Antibiotic susceptibility profile (CDC AR isolates; Enterobacter cloacae E62, CDC AR isolate) was “S”, the Antibiotic susceptibility profile (CDC AR isolates; Enterobacter cloacae E546, CDC AR isolate) was “R” and the Antibiotic susceptibility profile (CDC AR isolates; Klebsiella pneumoniae KP542, CDC AR isolate) was “I”. The Antibiotic susceptibility profile (CDC AR isolates; Klebsiella pneumoniae KP548, CDC AR isolate) was “R”, the Antibiotic susceptibility profile (CDC AR isolates; Klebsiella pneumoniae KP550, CDC AR isolate) was “R” and the Antibiotic susceptibility profile (CDC AR isolates; Klebsiella pneumoniae KP552, CDC AR isolate) was “R”. The Antibiotic susceptibility profile (CDC AR isolates; Pseudomonas aeruginosa PA229, CDC AR isolate) was “S”, the Antibiotic susceptibility profile (CDC AR isolates; Pseudomonas aeruginosa PA230, CDC AR isolate) was “S” and the Antibiotic susceptibility profile (CDC AR isolates; Pseudomonas aeruginosa PA231, CDC AR isolate) was “S”. The Antibiotic susceptibility profile (CDC AR isolates; Pseudomonas aeruginosa PA232, CDC AR isolate) was “S” and the Antibiotic susceptibility profile (CDC AR isolates; Pseudomonas aeruginosa PA239, CDC AR isolate) was “R”.
